According to paper PMC6173696, “Structural properties of a haemophore facilitate targeted elimination of the pathogen Porphyromonas gingivalis” (Nature Communications, 2018):

Experiments:
[1] = test system: P. gingivalis W83 within gingival H413 epithelial cells; test: Intracellular killing assay in infected H413 epithelial cells; assay type: cell-based, Porphyromonas gingivalis; conditions: H413 cells infected by W83, CFU count
Source text: Fig. 5 A prototype DPIX-conjugated antibiotic binds HusA and inhibits P. gingivalis. a The chemical structure of the deuteroporphyrin-lysine-metronidazole adduct, P8. b NMR signal intensity changes (black) and ^1H^N CSPs (red/green) for HusA upon addition of P8 (measured from ^15N-HSQC spectra shown in Supplementary Figure 21). c In silico docking of P8 to the energy minimized structure of HusA (conformer set 1), with residues experiencing NMR signal loss (orange) or CSPs (red/green) mapped to the structure (colouring as described in Fig. 2d). d Scaled and corrected fluorescence at 335 nm during titration of 1 μM of HusA with increasing concentrations of P8, haemin or DPIX. e Comparison of P8 inhibitory effect towards P. gingivalis wild-type W83 and husA mutants using checkerboard analysis. Serial dilutions of antibiotics (horizontal axis) were applied to a 96-well plate with different P. gingivalis strains (vertical axis). Serial dilutions of DPIX were also supplemented into wild-type W83 group to evaluate the competitive effect against P8. Absorption at OD600 of each well was recorded after 24 h of incubation. The OD600 of each strain grown in the absence of antibiotics was defined as 100% growth, which was applied to normalise the reading collected from other wells. […] Recovered bacteria were determined by CFU count. […]

[2] = target: T1, p22HBP (Mus musculus, UniProt Q9R257); test: Acid-alkaline transition of UV-vis spectra, haemin bound to p22HBP; assay type: physicochemical; conditions: haemin bound to murine p22HBP
T1 sequence (Q9R257 1-190): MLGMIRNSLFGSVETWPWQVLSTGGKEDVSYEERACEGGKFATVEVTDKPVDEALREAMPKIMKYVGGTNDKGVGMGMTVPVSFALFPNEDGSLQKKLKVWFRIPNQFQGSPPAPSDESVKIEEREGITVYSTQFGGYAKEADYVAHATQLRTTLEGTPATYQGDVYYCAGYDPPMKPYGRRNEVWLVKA
Procedure: (§1) Supplementary Figure 16. Acid-alkaline transition in UV-vis spectra of various haem binding proteins. (Top) UV-visible spectra (units of wavelength are nm) used to generate the pH titration curves shown in Figure 2h and in the bottom panel. (Bottom) Acid-alkaline titration of 5 µM haemin in presence of 7 µM IsdH, 5 µM IsdB, 7 µM IsdH(Y642A) and 7 µM p22HBP. All proteins are in holo form. See Fig 2h legend for buffer conditions. Absorbance A600–A650 values are plotted except for IsdH and IsdB, for which A630–A600 is plotted (to avoid negative values). […]

[3] = target: T2, IsdH(Y642A) (Staphylococcus aureus, UniProt Q931P4, Y642A); assay type: physicochemical; conditions: haemin bound to IsdH (Y642A)
T2 sequence (Q931P4 41-891 Y642A): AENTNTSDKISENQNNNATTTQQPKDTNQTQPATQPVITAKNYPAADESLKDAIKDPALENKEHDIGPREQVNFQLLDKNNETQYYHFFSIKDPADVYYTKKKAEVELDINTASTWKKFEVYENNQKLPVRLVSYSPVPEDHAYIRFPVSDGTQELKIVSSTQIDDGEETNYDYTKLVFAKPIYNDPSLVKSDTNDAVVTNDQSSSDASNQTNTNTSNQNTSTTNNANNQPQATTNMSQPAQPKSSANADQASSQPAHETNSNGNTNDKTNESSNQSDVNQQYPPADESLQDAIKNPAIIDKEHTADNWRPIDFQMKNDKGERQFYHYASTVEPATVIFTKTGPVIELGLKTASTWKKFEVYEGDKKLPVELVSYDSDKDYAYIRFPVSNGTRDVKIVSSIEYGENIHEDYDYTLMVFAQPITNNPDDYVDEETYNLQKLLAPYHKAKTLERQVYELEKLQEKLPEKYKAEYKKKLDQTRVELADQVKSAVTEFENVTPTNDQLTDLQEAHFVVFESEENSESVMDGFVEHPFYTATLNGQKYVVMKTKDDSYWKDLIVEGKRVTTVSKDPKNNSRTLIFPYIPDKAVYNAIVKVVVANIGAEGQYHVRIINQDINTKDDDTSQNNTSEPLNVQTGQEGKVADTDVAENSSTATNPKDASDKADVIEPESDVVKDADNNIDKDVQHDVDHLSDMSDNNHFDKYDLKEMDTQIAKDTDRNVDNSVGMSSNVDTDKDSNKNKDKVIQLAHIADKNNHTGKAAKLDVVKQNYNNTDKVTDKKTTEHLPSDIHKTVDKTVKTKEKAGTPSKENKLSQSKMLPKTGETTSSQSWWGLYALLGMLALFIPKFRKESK
Procedure: as §1

[4] = target: T3, HusA W130N (Porphyromonas gingivalis, UniProt Q7MSY3, W130N); test: Tryptophan fluorescence quenching assay, HusA mutant W130N; assay type: binding
T3 sequence (Q7MSY3 24-218 W130N): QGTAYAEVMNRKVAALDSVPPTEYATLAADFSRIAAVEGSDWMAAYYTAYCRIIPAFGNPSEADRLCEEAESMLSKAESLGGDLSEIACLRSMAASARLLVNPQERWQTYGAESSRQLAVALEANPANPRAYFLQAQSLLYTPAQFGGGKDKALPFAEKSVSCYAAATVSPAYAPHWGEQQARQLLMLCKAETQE

Row | SMILES | killing of intracellular P. gingivalis [1] | pKa of acid-alkaline transition [2] | pKa of acid-alkaline transition [3] | reduction of haemin affinity compared to wild-type [4] [%]
1 | CC1=Cc2cc3[nH]c(cc4nc(cc5[nH]c(cc1n2)cc5C)C(C)=C4CCC(=O)N[C@@H](CCCCNC(=O)OC(C)(C)C)C(=O)NCCn1c([N+](=O)[O-])cnc1C)c(CCC(=O)O)c3C [P8] | more effective than metronidazole | – | – | –
2 | C=CC1=C(C)c2cc3[nH]c(cc4nc(cc5[nH]c(cc1n2)c(C)c5CCC(=O)O)C(CCC(=O)O)=C4C)c(C)c3C=C.[Fe+3] [haemin] | – | 6.2 | 5.9 | > 50
